This passage reports IC50 results from patent publication US20080194574A1, “Pyrazine Derivatives As Effective Compounds Against Infectious Diseases” (AXXIMA PHARMACEUTICALS AG, priority 2003, published 2008).

Each structure is given as a SMILES string. Like-named read-outs stand apart in the source and are kept apart here. A value given as a limit tells only on which side of the number the result lay.

For this assay, the target named is T1, viral kinase pUL-97 (Human cytomegalovirus, UniProt P16788).
T1 construct: The pUL-97 gene was cloned into a baculovirus vector; GST (glutathione S-transferase) (N); made in house; host or cells: Sf9 insect cells, baculovirus
Briefly: UL97 kinase assay on Immobilon plate. It is filed as biochemical. As to conditions: inhibition of UL 97 kinase activity, read-out: Activity Class [A, B, C]. In outline:
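GST-pUL97 from baculovirus-infected Sf9 cells phosphorylated myelin basic protein with ATP (3 μM in the added assay buffer) and γ-[33P]ATP in Tris-HCl pH 7.5 buffer with MnCl2 and DTT. Reaction ran 1 h at 30 °C with graded compound concentrations and was stopped with EDTA. 33P incorporation was measured by scintillation after filter capture and phosphoric acid washes.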

Where [1] appears, read: class by IC50 / % inhibition at 10 or 100 μM.
The mark [2] stands for this setting: class by IC50 / % inhibition at 10 μM or 100 μM.

T1 sequence (P16788 whole entry): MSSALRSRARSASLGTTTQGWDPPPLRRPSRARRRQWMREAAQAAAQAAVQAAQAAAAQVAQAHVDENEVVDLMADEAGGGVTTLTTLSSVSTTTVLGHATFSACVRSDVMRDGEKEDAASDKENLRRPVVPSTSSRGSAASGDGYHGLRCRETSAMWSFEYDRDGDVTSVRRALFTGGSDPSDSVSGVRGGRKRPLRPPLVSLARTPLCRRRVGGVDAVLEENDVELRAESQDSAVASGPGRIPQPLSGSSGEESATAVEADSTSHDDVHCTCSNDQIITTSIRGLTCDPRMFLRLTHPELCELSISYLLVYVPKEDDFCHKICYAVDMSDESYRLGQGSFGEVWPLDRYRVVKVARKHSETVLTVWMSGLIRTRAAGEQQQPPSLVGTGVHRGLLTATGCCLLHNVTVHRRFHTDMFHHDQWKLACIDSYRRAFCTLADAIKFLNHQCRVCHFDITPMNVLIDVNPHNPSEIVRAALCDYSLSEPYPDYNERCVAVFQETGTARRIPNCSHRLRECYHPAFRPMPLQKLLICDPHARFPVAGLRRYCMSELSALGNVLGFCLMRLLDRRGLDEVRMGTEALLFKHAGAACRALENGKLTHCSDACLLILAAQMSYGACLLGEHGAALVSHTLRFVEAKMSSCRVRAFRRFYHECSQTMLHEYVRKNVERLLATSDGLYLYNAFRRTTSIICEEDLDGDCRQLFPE

Take `NC(=O)c1ccccc1-c1cncc(N2CCN(c3ccncc3)CC2)n1` [Comp. 70, 2-(4-Pyridin-4-yl-3,4,5,6-tetrahydro-2H-[1,2′]bipyrazinyl-6′-yl)-benzamide]: the IC50 under setting [1] was 10 to 100 µM.

For `Cc1cccc(-c2cncc(N3CCN(c4ccccn4)CC3)n2)c1` [compound 327, 4-Pyridin-2-yl-6′-m-tolyl-3,4,5,6-tetrahydro-2H-[1,2′]bipyrazinyl], the IC50 under setting [2] lay in the range of 10 to 100 µM.

For the molecule `COc1cc(-c2cncc(N3CCN(c4cccc5[nH]ccc45)CC3)n2)cc(OC)c1OC` [compound 37, 4-(1H-Indol-4-yl)-6′-(3,4,5-trimethoxy-phenyl)-3,4,5,6-tetrahydro-2H-[1,2′]bipyrazinyl], the IC50 under setting [1] fell in the range of 10 to 100 µM.

With `OCc1cccc(-c2cncc(N3CCN(CCN4CCCC4)CC3)n2)c1` [compound 63, {3-[4-(2-Pyrrolidin-1-yl-ethyl)-3,4,5,6-tetrahydro-2H-[1,2′]bipyrazinyl-6′-yl]-phenyl}-methanol], the IC50 under setting [1] was 10 to 100 µM.

Take `CC(C)(C)c1ccc(-c2cncc(N3CCN(c4cccc(C(F)(F)F)c4)CC3)n2)cc1` [compound 253, 6′-(4-tert-Butyl-phenyl)-4-(3-trifluoromethyl-phenyl)-3,4,5,6-tetrahydro-2H-[1,2′]bipyrazinyl]: under setting [2], the IC50 lay in the range of 10 to 100 µM.

On to `CC(=O)c1ccc(-c2cncc(N3CCN(c4ccc(C)cc4C)CC3)n2)s1` [compound 289, 1-{5-[4-(2,4-Dimethyl-phenyl)-3,4,5,6-tetrahydro-2H-[1,2′]bipyrazinyl-6′-yl]-thiophen-2-yl}-ethanone], for which, under setting [2], the IC50 was 10 to 100 µM.

As for `COc1ccccc1N1CCN(c2cncc(-c3ccc(F)cc3)n2)CC1` [compound 106, 6′-(4-Fluoro-phenyl)-4-(2-methoxy-phenyl)-3,4,5,6-tetrahydro-2H-[1,2′]bipyrazinyl], the IC50 under setting [1] fell in the range of 1 to 10 µM.

Consider `FC(F)(F)c1cccc(N2CCN(c3cncc(-c4ccoc4)n3)CC2)c1` [compound 255, 6′-Furan-3-yl-4-(3-trifluoromethyl-phenyl)-3,4,5,6-tetrahydro-2H-[1,2′]bipyrazinyl], for which, under setting [2], the IC50 was 10 to 100 µM.

On to `Cc1ccccc1-c1cncc(N2CCN(c3ccccc3)CC2)n1` [compound 94, 4-Phenyl-6′-o-tolyl-3,4,5,6-tetrahydro-2H-[1,2′]bipyrazinyl], for which the IC50 under setting [1] was in the range of 10 to 100 µM.

As for `c1ccc(C2CCN(c3cncc(-c4ccoc4)n3)CC2)cc1` [compound 277, 2-Furan-3-yl-6-(4-phenyl-piperidin-1-yl)-pyrazine], the IC50 under setting [2] was in the range of 10 to 100 µM.

Consider `COc1ccc(Cl)cc1-c1cncc(N2CCN(c3ccccc3)CC2)n1` [compound 119, 6′-(5-Chloro-2-methoxy-phenyl)-4-phenyl-3,4,5,6-tetrahydro-2H-[1,2′]bipyrazinyl], for which the IC50 under setting [1] lay in the range of 10 to 100 µM.

With `Fc1ccc(-c2cncc(N3CCN(c4cccc(Cl)c4)CC3)n2)cc1Cl` [compound 238, 6′-(3-Chloro-4-fluoro-phenyl)-4-(3-chloro-phenyl)-3,4,5,6-tetrahydro-2H-[1,2′]bipyrazinyl], the IC50 under setting [2] lay within 10 to 100 µM.

For the molecule `CC(=O)c1ccc(N2CCN(c3cncc(-c4ccoc4)n3)CC2)cc1` [compound 205, 1-[4-(6′-Furan-3-yl-2,3,5,6-tetrahydro-[1,2′]bipyrazinyl-4-yl)-phenyl]-ethanone], the IC50 under setting [2] lay within 1 to 10 µM.

Take `COc1ccccc1N1CCN(c2cncc(-c3ccc(C(F)(F)F)cc3)n2)CC1` [compound 188, 4-(2-Methoxy-phenyl)-6′-(4-trifluoromethyl-phenyl)-3,4,5,6-tetrahydro-2H-[1,2′]bipyrazinyl]: the IC50 under setting [1] fell in the range of 10 to 100 µM.

With `c1ccc2c(-c3cncc(N4CCN(c5ccncc5)CC4)n3)cccc2c1` [compound 221, 6′-Naphthalen-1-yl-4-pyridin-4-yl-3,4,5,6-tetrahydro-2H-[1,2′]bipyrazinyl], the IC50 under setting [2] is 1 to 10 µM.

Turning to `OCc1ccc(-c2cncc(N3CCN(c4cccc(C(F)(F)F)c4)CC3)n2)cc1` [compound 254, {4-[4-(3-Trifluoromethyl-phenyl)-3,4,5,6-tetrahydro-2H-[1,2′]bipyrazinyl-6′-yl]-phenyl}-methanol], under setting [2], the IC50 is 10 to 100 µM.

As for `CN(C)c1ccc(-c2cncc(N3CCN(c4ccccc4)CC3)n2)cc1` [compound 190, Dimethyl-[4-(4-phenyl-3,4,5,6-tetrahydro-2H-[1,2′]bipyrazinyl-6′-yl)-phenyl]-amine], under setting [1], the IC50 fell in the range of 1 to 10 µM.

Take `COc1cccc(N2CCN(c3cncc(-c4cc5ccccc5o4)n3)CC2)c1` [compound 285, 6′-Benzofuran-2-yl-4-(3-methoxy-phenyl)-3,4,5,6-tetrahydro-2H-[1,2′]bipyrazinyl]: the IC50 under setting [2] lay in the range of 1 to 10 µM.

As to `CCOc1ccc(-c2cncc(N3CCN(c4ccc(C(C)=O)cc4)CC3)n2)cc1` [compound 207, 1-{4-[6′-(4-Ethoxy-phenyl)-2,3,5,6-tetrahydro-[1,2′]bipyrazinyl-4-yl]-phenyl}-ethanone], under setting [2], the IC50 is 10 to 100 µM.

Take `Cc1ccc(-c2cncc(N3CCN(c4ccc(C)cc4)CC3)n2)cc1` [compound 229, 4,6′-Di-p-tolyl-3,4,5,6-tetrahydro-2H-[1,2′]bipyrazinyl]: the IC50 under setting [2] lay within 10 to 100 µM.

In the case of `Fc1ccc(-c2cncc(N3CCN(c4ccncc4)CC3)n2)cc1Cl` [compound 33, 6′-(3-Chloro-4-fluoro-phenyl)-4-pyridin-4-yl-3,4,5,6-tetrahydro-2H-[1,2′]bipyrazinyl], the IC50 under setting [1] was under 1 µM.

For `Fc1cccc(-c2cncc(N3CCN(c4ccccc4)CC3)n2)c1` [compound 194, 6′-(3-Fluoro-phenyl)-4-phenyl-3,4,5,6-tetrahydro-2H-[1,2′]bipyrazinyl], the IC50 under setting [1] lay within 10 to 100 µM.

Turning to `CC(=O)c1ccc(N2CCN(c3cncc(-c4cccc(C)c4)n3)CC2)cc1` [compound 147, 1-[4-(6′-m-Tolyl-2,3,5,6-tetrahydro-[1,2′]bipyrazinyl-4-yl)-phenyl]-ethanone], under setting [1], the IC50 was 10 to 100 µM.

For the molecule `COc1ccc(-c2cncc(N3CCN(c4cccc(C(F)(F)F)c4)CC3)n2)cc1OC` [compound 161, 6′-(3,4-Dimethoxy-phenyl)-4-(3-trifluoromethyl-phenyl)-3,4,5,6-tetrahydro-2H-[1,2′]bipyrazinyl], the IC50 under setting [1] is 10 to 100 µM.

In the case of `COc1cccc(N2CCN(c3cncc(-c4csc5ccccc45)n3)CC2)c1` [compound 286, 6′-Benzo[b]thiophen-3-yl-4-(3-methoxy-phenyl)-3,4,5,6-tetrahydro-2H-[1,2′]bipyrazinyl], the IC50 under setting [2] lay in the range of 1 to 10 µM.

On to `CC(=O)c1cccc(-c2cncc(N3CCN(c4cccc(C)c4C)CC3)n2)c1` [compound 297, 1-{3-[4-(2,3-Dimethyl-phenyl)-3,4,5,6-tetrahydro-2H-[1,2′]bipyrazinyl-6′-yl]-phenyl}-ethanone], for which the IC50 under setting [2] fell in the range of 10 to 100 µM.

With `COc1ccc(N2CCN(c3cncc(-c4ccc(C(N)=O)cc4)n3)CC2)cc1OC` [compound 20, 4-[4-(3,4-Dimethoxyphenyl)-3,4,5,6-tetrahydro-2H-[1,2′]bipyrazinyl-6′-yl)-benzamide], the IC50 under setting [1] was under 1 µM.

As to `COc1ccc(-c2cncc(N3CCC(c4ccccc4)CC3)n2)cc1F` [compound 278, 2-(3-Fluoro-4-methoxy-phenyl)-6-(4-phenyl-piperidin-1-yl)-pyrazine], the IC50 under setting [2] fell in the range of 10 to 100 µM.

For the molecule `FC(F)(F)c1ccc(N2CCN(c3cncc(-c4ccoc4)n3)CC2)cc1` [compound 353, 6′-Furan-3-yl-4-(4-trifluoromethyl-phenyl)-3,4,5,6-tetrahydro-2H-[1,2′]bipyrazinyl], under setting [2], the IC50 fell in the range of 10 to 100 µM.

As to `Fc1ccc(N2CCN(c3cncc(-c4ccc(F)c(Cl)c4)n3)CC2)c(F)c1` [compound 145, 6′-(3-Chloro-4-fluoro-phenyl)-4-(2,4-difluoro-phenyl)-3,4,5,6-tetrahydro-2H-[1,2′]bipyrazinyl], under setting [1], the IC50 lay in the range of 10 to 100 µM.

As to `CN(C)c1ccc(-c2cncc(N3CCN(c4cnccn4)CC3)n2)cc1` [compound 343, Dimethyl-[4-(2′,3′,5′,6′-tetrahydro-[2,1′;4′,2″]terpyrazin-6-yl)-phenyl]-amine], the IC50 under setting [2] lay within 1 to 10 µM.

Turning to `c1ccc(C2CCN(c3cncc(-c4ccc5ccccc5c4)n3)CC2)cc1` [compound 337, 2-Naphthalen-2-yl-6-(4-phenyl-piperidin-1-yl)-pyrazine], the IC50 under setting [2] lay in the range of 1 to 10 µM.

In the case of `COc1ccc(Cl)cc1-c1cncc(N2CCN(c3ccncc3)CC2)n1` [compound 259, 6′-(5-Chloro-2-methoxy-phenyl)-4-pyridin-4-yl-3,4,5,6-tetrahydro-2H-[1,2′]bipyrazinyl], under setting [2], the IC50 was 10 to 100 µM.

For `COc1ccc(N2CCN(c3cncc(-c4ccc(F)cc4F)n3)CC2)cc1OC` [compound 41, 6′-(2,4-Difluoro-phenyl)-4-(3,4-dimethoxy-phenyl)-3,4,5,6-tetrahydro-2H-[1,2′]bipyrazinyl], the IC50 under setting [1] lay in the range of 10 to 100 µM.

As for `CC(=O)c1cccc(-c2cncc(N3CCN(c4ccccc4F)CC3)n2)c1` [compound 115, 1-{3-[4-(2-Fluoro-phenyl)-3,4,5,6-tetrahydro-2H-[1,2′]bipyrazinyl-6′-yl]-phenyl}-ethanone], under setting [1], the IC50 was in the range of 1 to 10 µM.

For the molecule `FC(F)(F)c1cccc(N2CCN(c3cncc(-c4csc5ccccc45)n3)CC2)c1` [compound 158, 6′-Benzo[b]thiophen-3-yl-4-(3-trifluoromethyl-phenyl)-3,4,5,6-tetrahydro-2H-[1,2′]bipyrazinyl], the IC50 under setting [1] is 10 to 100 µM.

For the molecule `Cc1ccc(-c2cncc(NCc3ccco3)n2)cc1C` [compound 51, [6-(3,4-Dimethyl-phenyl)-pyrazin-2-yl]-furan-2-ylmethyl-amine], the IC50 under setting [1] is 10 to 100 µM.

For `COc1cccc(N2CCN(c3cncc(-c4ccc(C(F)(F)F)cc4)n3)CC2)c1` [compound 356, 4-(3-Methoxy-phenyl)-6′-(4-trifluoromethyl-phenyl)-3,4,5,6-tetrahydro-2H-[1,2′]bipyrazinyl], under setting [2], the IC50 lay in the range of 1 to 10 µM.
